Measurements from US5589497A, “Phenylimidazolidines” (Uclaf; Roussel, priority 1992, dated 1996).

Target: T1, androgenic receptors (rat prostate cytosol) (Rattus norvegicus, UniProt P15207)
T1 construct: from tissue; host or cells: prostate cytosol (209,000 g supernatant) of castrated male Sprague Dawley EOPS rats
T1 sequence (P15207 1-902): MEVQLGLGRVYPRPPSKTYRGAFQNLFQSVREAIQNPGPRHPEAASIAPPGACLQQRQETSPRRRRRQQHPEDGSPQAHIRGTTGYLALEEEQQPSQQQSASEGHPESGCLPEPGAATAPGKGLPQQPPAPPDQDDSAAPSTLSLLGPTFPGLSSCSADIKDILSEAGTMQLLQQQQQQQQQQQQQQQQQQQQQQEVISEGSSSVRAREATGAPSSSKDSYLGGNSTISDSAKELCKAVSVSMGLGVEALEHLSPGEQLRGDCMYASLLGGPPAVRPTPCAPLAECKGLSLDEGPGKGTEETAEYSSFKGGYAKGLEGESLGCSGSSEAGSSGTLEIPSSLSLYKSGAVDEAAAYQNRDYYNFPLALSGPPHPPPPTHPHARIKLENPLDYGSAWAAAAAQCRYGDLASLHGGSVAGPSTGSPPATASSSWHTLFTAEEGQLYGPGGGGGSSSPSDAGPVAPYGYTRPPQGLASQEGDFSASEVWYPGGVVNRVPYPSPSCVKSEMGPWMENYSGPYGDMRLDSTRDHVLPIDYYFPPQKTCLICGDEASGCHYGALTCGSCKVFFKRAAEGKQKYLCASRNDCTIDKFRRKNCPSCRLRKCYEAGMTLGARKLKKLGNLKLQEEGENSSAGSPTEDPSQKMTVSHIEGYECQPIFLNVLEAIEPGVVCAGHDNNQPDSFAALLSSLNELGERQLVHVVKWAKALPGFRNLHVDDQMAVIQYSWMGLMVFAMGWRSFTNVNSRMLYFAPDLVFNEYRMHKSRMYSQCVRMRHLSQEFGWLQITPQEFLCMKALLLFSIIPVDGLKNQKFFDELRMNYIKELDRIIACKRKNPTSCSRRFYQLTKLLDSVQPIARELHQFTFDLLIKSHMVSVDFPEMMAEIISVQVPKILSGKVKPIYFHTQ
Assay: Study of androgenic receptors: relative binding affinity (RBA) versus tritiated testosterone in prostate cytosol of castrated rats
Set-up: species or system male rats of the Sprague Dawley EOPS strain
Conditions: 24 H incubation; testosterone=100; RBA=100(CH)/(CX)
Procedure: Male rats of the Sprague Dawley EOPS strain weighing 180 to 200 g, castrated 24 hours previously, were killed and the prostate was removed, weighed and homogenized at 0° C. with a potter glass in a buffered solution (Tris 10 mM, saccharose 0.25M, PMSF (phenyl methane sulfonyl fluoride) 0.1 mM, sodium molybdate 20 mM, HCl pH 7.4 into which was added extemporaneously […] of DTT (DL dithiothreitol) at a rate of 1 g of tissue per 8 ml of buffer solution. The homogenate was then ultracentrifuged at 0° C. for 30 minutes at 209,000 g and the aliquots of supernatant (=cytosol) were incubated for 30 minutes and 24 hours with a concentration (T) of tritiated testosterone and in the presence of increasing concentrations (0 to 2500×10^-9 M) of cold testosterone or the test products. The concentration of bound tritiated testosterone (B) was then measured for each incubate by adsorption method of carbon-dextran. The relative affinity of bonding (RBA) was calculated.
The following two curves were graphed: the percentage of the bound tritiated hormone B/T as a logarithmic function of the concentration of the cold hormone and B/T as a logarithmic function of the concentration of the tested cold product. The line of the equation I50 =(B/Tmax+B/Tmin)/2 was determined.
B/T max=% of the bound tritiated hormone for an incubation of this tritiated hormone at concentration (T). […]

Structure (SMILES) | relative affinity of bonding (RBA)
CCC1(CC)C(=O)N(c2ccc(C#N)c(C(F)(F)F)c2)C(=S)N1C [Example 5, 4-(4,4-diethyl-3-methyl-5-oxo-2-thioxo-1-imidazolidinyl)-2-trifluoromethyl-benzonitrile] | 8
CN1C(=S)N(c2ccc(C#N)c(C(F)(F)F)c2)C(=O)C12CCCC2 [Example 3, 4-(1-methyl-4-oxo-2-thioxo-1,3-diazaspiro(4,4)nonan-3-yl)-2-trifluoromethyl-benzonitrile] | 27
